Data from PubChem BioAssay AID192 (DTP/NCI, 2004).
Where “and” joins values, the source holds several entries; their conditions need not be identical. Equal entries are not always repeated. Inconclusive results and toxic doses are left out.

Test system: BDF1 mice, B16 melanoma ip, median survival T/C
Assay: NCI In Vivo Anticancer Drug Screen. Data for tumor model B16 Melanoma (intraperitoneal) in B6D2F1 (BDF1) mice
Conditions: endpoint: median survival time, higher = longer survival
Procedure, shortened: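 Compounds were tested in mice carrying transplantable tumors. Survival or tumor size was recorded, and each value is the treated-group measurement (T) divided by that of the vehicle-treated control group (C).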

[1] = dose: 25.0 mg/kg/injection, schedule: Q01DX009 (ip), vehicle: Klucel (hydroxypropylcellulose) (HPC)
[2] = dose: 25.0 mg/kg/injection, schedule: Q04DX003 (ip), vehicle: Klucel (hydroxypropylcellulose) (HPC)
[3] = dose: 100.0 mg/kg/injection, schedule: Q04DX003 (ip), vehicle: Klucel (hydroxypropylcellulose) (HPC)

Q: What does the source list for `Cc1ccc(NCCN(C)C)c2c(=O)c3cc(O)ccc3sc12`?
A: T/C (dose: 3.0 mg/kg/injection, schedule: Q01DX009 (ip), vehicle: Klucel (hydroxypropylcellulose) (HPC)): 119 % of control; T/C (dose: 12.0 mg/kg/injection, schedule: Q01DX009 (ip), vehicle: Klucel (hydroxypropylcellulose) (HPC)): 157 % of control; T/C (dose: 24.0 mg/kg/injection, schedule: Q01DX009 (ip), vehicle: Klucel (hydroxypropylcellulose) (HPC)): 160 % of control; T/C [1]: 162 % of control

Q: How did the T/C (dose: 50.0 mg/kg/injection, schedule: Q01DX009 (ip), vehicle: Klucel (hydroxypropylcellulose) (HPC)) turn out when `O=C1CCC2(CCC(=O)c3ccccc32)C(=O)N1` (stereo unspecified) was run?
A: 119 % of control

Q: What about the T/C (dose: 100.0 mg/kg/injection, schedule: Q01DX009 (ip), vehicle: Klucel (hydroxypropylcellulose) (HPC)) of the same compound?
A: 114 % of control

Q: And the T/C (dose: 200.0 mg/kg/injection, schedule: Q01DX009 (ip), vehicle: Klucel (hydroxypropylcellulose) (HPC))?
A: 116 % of control

Q: `CSC1SCC2C(=O)N(C)C(C(C)C)C(=O)OCC(NC(=O)c3cnc4ccccc4n3)C(=O)NC(C)C(=O)N(C)C1C(=O)N(C)C(C(C)C)C(=O)OCC(NC(=O)c1cnc3ccccc3n1)C(=O)NC(C)C(=O)N2C` (stereo unspecified) was tested. Which T/C (dose: 0.1 micrograms/kg/injection, schedule: Q01DX009 (ip), vehicle: saline with Tween-80) did it give?
A: 106 % of control

Q: And the T/C (dose: 0.2 micrograms/kg/injection, schedule: Q01DX009 (ip), vehicle: saline with Tween-80)?
A: 105 % of control

Q: And the T/C (dose: 0.4 micrograms/kg/injection, schedule: Q01DX009 (ip), vehicle: saline with Tween-80)?
A: 108 % of control

Q: And the T/C (dose: 0.9 micrograms/kg/injection, schedule: Q01DX009 (ip), vehicle: saline with Tween-80)?
A: 108 % of control

Q: What about the T/C (dose: 0.94 micrograms/kg/injection, schedule: Q01DX009 (ip), vehicle: Klucel (hydroxypropylcellulose) (HPC)) of the same compound?
A: 93 % of control

Q: What about the T/C (dose: 0.94 micrograms/kg/injection, schedule: Q01DX009 (ip), vehicle: clinical formulation) of the same compound?
A: 113 % of control

Q: And the T/C (dose: 0.94 micrograms/kg/injection, schedule: Q01DX009 (ip), vehicle: distilled water + alcohol)?
A: 118 % of control

Q: What about the T/C (dose: 1.8 micrograms/kg/injection, schedule: Q01DX009 (ip), vehicle: saline with Tween-80) of the same compound?
A: 151 % of control and 167 % of control

Q: What about the T/C (dose: 1.88 micrograms/kg/injection, schedule: Q01DX009 (ip), vehicle: Klucel (hydroxypropylcellulose) (HPC)) of the same compound?
A: 88 % of control

Q: And the T/C (dose: 1.88 micrograms/kg/injection, schedule: Q01DX009 (ip), vehicle: clinical formulation)?
A: 112 % of control

Q: What about the T/C (dose: 1.88 micrograms/kg/injection, schedule: Q01DX009 (ip), vehicle: distilled water + alcohol) of the same compound?
A: 117 % of control

Q: What about the T/C (dose: 1.9 micrograms/kg/injection, schedule: Q01DX009 (ip), vehicle: saline) of the same compound?
A: 156 % of control

Q: And the T/C (dose: 3.75 micrograms/kg/injection, schedule: Q01DX009 (ip), vehicle: Klucel (hydroxypropylcellulose) (HPC))?
A: 102 % of control

Q: And the T/C (dose: 3.75 micrograms/kg/injection, schedule: Q01DX009 (ip), vehicle: distilled water + alcohol)?
A: 113 % of control

Q: And the T/C (dose: 3.8 micrograms/kg/injection, schedule: Q01DX009 (ip), vehicle: saline)?
A: 123 % of control

Q: And the T/C (dose: 7.5 micrograms/kg/injection, schedule: Q01DX009 (ip), vehicle: Klucel (hydroxypropylcellulose) (HPC))?
A: 107 % of control

Q: And the T/C (dose: 7.5 micrograms/kg/injection, schedule: Q01DX009 (ip), vehicle: distilled water + alcohol)?
A: 123 % of control

Q: And the T/C (dose: 8.0 micrograms/kg/injection, schedule: Q01DX009 (ip), vehicle: other)?
A: 152 % of control and 155 % of control

Q: What about the T/C (dose: 15.0 micrograms/kg/injection, schedule: Q01DX009 (ip), vehicle: Klucel (hydroxypropylcellulose) (HPC)) of the same compound?
A: 115 % of control

Q: And the T/C (dose: 15.0 micrograms/kg/injection, schedule: Q01DX009 (ip), vehicle: clinical formulation)?
A: 169 % of control

Q: What about the T/C (dose: 15.0 micrograms/kg/injection, schedule: Q01DX009 (ip), vehicle: saline) of the same compound?
A: 174 % of control

Q: What about the T/C (dose: 16.0 micrograms/kg/injection, schedule: Q01DX009 (ip), vehicle: other) of the same compound?
A: 161 % of control

Q: What about the T/C (dose: 16.0 micrograms/kg/injection, schedule: Q01DX009 (ip), vehicle: saline sonified) of the same compound?
A: 160 % of control and 168 % of control

Q: And the T/C (dose: 16.0 micrograms/kg/injection, schedule: Q01DX009 (ip), vehicle: saline)?
A: 160 % of control

Q: What about the T/C (dose: 30.0 micrograms/kg/injection, schedule: Q01DX009 (ip), vehicle: clinical formulation) of the same compound?
A: 168 % of control

Q: And the T/C (dose: 30.0 micrograms/kg/injection, schedule: Q01DX009 (ip), vehicle: saline with Tween-80)?
A: 88 % of control

Q: What about the T/C (dose: 30.0 micrograms/kg/injection, schedule: Q01DX009 (ip), vehicle: saline) of the same compound?
A: 183 % of control

Q: What about the T/C (dose: 32.0 micrograms/kg/injection, schedule: Q01DX009 (ip), vehicle: other) of the same compound?
A: 157 % of control and 158 % of control and 160 % of control

Q: What about the T/C (dose: 32.0 micrograms/kg/injection, schedule: Q01DX009 (ip), vehicle: saline sonified) of the same compound?
A: 167 % of control and 170 % of control and 189 % of control

Q: What about the T/C (dose: 32.0 micrograms/kg/injection, schedule: Q01DX009 (ip), vehicle: saline) of the same compound?
A: 165 % of control

Q: And the T/C (dose: 32.0 micrograms/kg/injection, schedule: Q04DX003 (ip), vehicle: saline sonified)?
A: 156 % of control

Q: What about the T/C (dose: 60.0 micrograms/kg/injection, schedule: Q01DX009 (ip), vehicle: clinical formulation) of the same compound?
A: 173 % of control

Q: And the T/C (dose: 60.0 micrograms/kg/injection, schedule: Q01DX009 (ip), vehicle: distilled water + alcohol)?
A: 168 % of control

Q: What about the T/C (dose: 60.0 micrograms/kg/injection, schedule: Q01DX009 (ip), vehicle: saline) of the same compound?
A: 165 % of control

Q: What about the T/C (dose: 64.0 micrograms/kg/injection, schedule: Q01DX009 (ip), vehicle: other) of the same compound?
A: 159 % of control and 189 % of control and 215 % of control

Q: What about the T/C (dose: 64.0 micrograms/kg/injection, schedule: Q01DX009 (ip), vehicle: saline sonified) of the same compound?
A: 165 % of control and 172 % of control

Q: And the T/C (dose: 64.0 micrograms/kg/injection, schedule: Q01DX009 (ip), vehicle: saline)?
A: 176 % of control

Q: And the T/C (dose: 64.0 micrograms/kg/injection, schedule: Q04DX003 (ip), vehicle: saline sonified)?
A: 174 % of control

Q: And the T/C (dose: 120.0 micrograms/kg/injection, schedule: Q01DX009 (ip), vehicle: Klucel (hydroxypropylcellulose) (HPC))?
A: 154 % of control

Q: And the T/C (dose: 120.0 micrograms/kg/injection, schedule: Q01DX009 (ip), vehicle: distilled water + alcohol)?
A: 173 % of control

Q: What about the T/C (dose: 120.0 micrograms/kg/injection, schedule: Q01DX009 (ip), vehicle: saline with Tween-80) of the same compound?
A: 162 % of control and 189 % of control

Q: What about the T/C (dose: 128.0 micrograms/kg/injection, schedule: Q01DX009 (ip), vehicle: saline sonified) of the same compound?
A: 164 % of control and 188 % of control

Q: What about the T/C (dose: 128.0 micrograms/kg/injection, schedule: Q01DX009 (ip), vehicle: saline) of the same compound?
A: 166 % of control

Q: What about the T/C (dose: 128.0 micrograms/kg/injection, schedule: Q04DX003 (ip), vehicle: saline sonified) of the same compound?
A: 165 % of control

Q: And the T/C (dose: 192.0 micrograms/kg/injection, schedule: Q04DX003 (ip), vehicle: saline sonified)?
A: 180 % of control

Q: And the T/C (dose: 240.0 micrograms/kg/injection, schedule: Q01DX009 (ip), vehicle: Klucel (hydroxypropylcellulose) (HPC))?
A: 151 % of control

Q: What about the T/C (dose: 240.0 micrograms/kg/injection, schedule: Q01DX009 (ip), vehicle: saline with Tween-80) of the same compound?
A: 115 % of control

Q: And the T/C (dose: 256.0 micrograms/kg/injection, schedule: Q04DX003 (ip), vehicle: saline sonified)?
A: 175 % of control

Q: And the T/C (dose: 480.0 micrograms/kg/injection, schedule: Q01DX009 (ip), vehicle: Klucel (hydroxypropylcellulose) (HPC))?
A: 168 % of control

Q: What does the source list for `BrCCC[P+](c1ccccc1)(c1ccccc1)c1ccccc1`?
A: T/C (dose: 3.13 mg/kg/injection, schedule: Q01DX009 (ip), vehicle: Klucel (hydroxypropylcellulose) (HPC)): 106 % of control; T/C (dose: 3.13 mg/kg/injection, schedule: Q01DX009 (ip), vehicle: saline): 105 % of control; T/C (dose: 3.13 mg/kg/injection, schedule: Q04DX003 (ip), vehicle: saline): 89 % of control; T/C (dose: 6.25 mg/kg/injection, schedule: Q01DX009 (ip), vehicle: Klucel (hydroxypropylcellulose) (HPC)): 103 % of control; T/C (dose: 6.25 mg/kg/injection, schedule: Q01DX009 (ip), vehicle: saline): 100 % of control; T/C (dose: 6.25 mg/kg/injection, schedule: Q04DX003 (ip), vehicle: saline): 89 % of control; T/C (dose: 12.5 mg/kg/injection, schedule: Q01DX009 (ip), vehicle: Klucel (hydroxypropylcellulose) (HPC)): 106 % of control; T/C (dose: 12.5 mg/kg/injection, schedule: Q01DX009 (ip), vehicle: saline): 107 % of control; T/C (dose: 12.5 mg/kg/injection, schedule: Q04DX003 (ip), vehicle: saline): 89 % of control; T/C [1]: 90 % of control; T/C [2]: 90 % of control

Q: For `COC(=O)C12Oc3ccc(-c4ccc5c(c4O)C(O)=C4C(=O)CC(C)C(O)C4(C(=O)OC)O5)c(O)c3C(O)=C1C(=O)CC(C)C2O` (stereo unspecified), which T/C (dose: 0.15 mg/kg/injection, schedule: Q01DX009 (ip), vehicle: saline with Tween-80) is on record?
A: 98 % of control

Q: What about the T/C (dose: 0.31 mg/kg/injection, schedule: Q01DX009 (ip), vehicle: saline with Tween-80) of the same compound?
A: 93 % of control

Q: What about the T/C (dose: 0.62 mg/kg/injection, schedule: Q01DX009 (ip), vehicle: saline with Tween-80) of the same compound?
A: 104 % of control

Q: And the T/C (dose: 1.25 mg/kg/injection, schedule: Q01DX009 (ip), vehicle: saline with Tween-80)?
A: 95 % of control

Q: Which results are given for `CCCCCCCCCCCCCCCCCCNC(=O)Nc1ccc(C(C)C)cc1`?
A: T/C [2]: 86 % of control; T/C [3]: 86 % of control and 89 % of control

Q: Which T/C [3] does the source give for `O=C(Nc1ccccc1Cl)Oc1ccccc1Cc1ccccc1` here?
A: 100 % of control

Q: And the T/C (dose: 200.0 mg/kg/injection, schedule: Q04DX003 (ip), vehicle: Klucel (hydroxypropylcellulose) (HPC))?
A: 106 % of control

Q: And the T/C (dose: 400.0 mg/kg/injection, schedule: Q04DX003 (ip), vehicle: Klucel (hydroxypropylcellulose) (HPC))?
A: 93 % of control
